Results: the supplement of paper PMC11061612

Assays:
Experiment in all cases: combination Emax (second highest fraction inhibited in the dose matrix, 72 h); higher = more inhibition; extreme values may be limits of the assay
5637 (Bladder Carcinoma) = system: 5637 (Bladder Carcinoma)
Procedure, shortened: (§1)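 After 24 hours at 37°C and 5% CO2 in 1536-well plates, cells in DMEM/F12 or RPMI plus 10% FBS received two-drug dose matrices for 72 hours. Viability came from CellTiter-Glo 2.0 luminescence and was scaled as inhibition, anchored at 0 by vehicle wells and at 1 by blank wells. Combination Emax is taken as the second-highest inhibition in the matrix, and Bliss excess as the observed combination effect less EA + EB − EA·EB, with EA and EB the single-agent effects.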

769-P (Kidney Carcinoma) = system: 769-P (Kidney Carcinoma)
Procedure, shortened: as §1

[1] = system: A253 (Head and Neck Carcinoma)
Procedure, shortened: as §1

[2] = system: A2780 (Ovarian Carcinoma)
Procedure, shortened: as §1

[3] = system: CAL-27 (Oral Cavity Carcinoma)
Procedure, shortened: as §1

[4] = system: DU-4475 (Breast Carcinoma)
Procedure, shortened: as §1

EB2 (Burkitt's Lymphoma) = system: EB2 (Burkitt's Lymphoma)
Procedure, shortened: as §1

[5] = system: EPLC-272H (Other Solid Carcinomas)
Procedure, shortened: as §1

EW-16 (Ewing's Sarcoma) = system: EW-16 (Ewing's Sarcoma)
Procedure, shortened: as §1

[6] = system: G-402 (Other Solid Carcinomas)
Procedure, shortened: as §1

[7] = system: HCC1428 (Breast Carcinoma)
Procedure, shortened: as §1

[8] = system: Jurkat (T-Lymphoblastic Leukemia)
Procedure, shortened: as §1

[9] = system: KYSE-140 (Esophageal Squamous Cell Carcinoma)
Procedure, shortened: as §1

[10] = system: LU-165 (Small Cell Lung Carcinoma)
Procedure, shortened: as §1

[11] = system: MHH-ES-1 (Ewing's Sarcoma)
Procedure, shortened: as §1

[12] = system: OACp4C (Esophageal Adenocarcinoma)
Procedure, shortened: as §1

PEO1 (Ovarian Carcinoma) = system: PEO1 (Ovarian Carcinoma)
Procedure, shortened: as §1

RH-41 (Rhabdomyosarcoma) = system: RH-41 (Rhabdomyosarcoma)
Procedure, shortened: as §1

[13] = system: SK-HEP-1 (Hepatocellular Carcinoma)
Procedure, shortened: as §1

WM1552C (Melanoma) = system: WM1552C (Melanoma)
Procedure, shortened: as §1

Row | SMILES | combination Emax (5637 (Bladder Carcinoma)) | combination Emax (769-P (Kidney Carcinoma)) | combination Emax [1] | combination Emax [2] | combination Emax [3] | combination Emax [4] | combination Emax (EB2 (Burkitt's Lymphoma)) | combination Emax [5] | combination Emax (EW-16 (Ewing's Sarcoma)) | combination Emax [6] | combination Emax [7] | combination Emax [8] | combination Emax [9] | combination Emax [10] | combination Emax [11] | combination Emax [12] | combination Emax (PEO1 (Ovarian Carcinoma)) | combination Emax (RH-41 (Rhabdomyosarcoma)) | combination Emax [13] | combination Emax (WM1552C (Melanoma))
1 | CC1(C)CCC(CN2CCN(c3ccc(C(=O)NS(=O)(=O)c4ccc(NCC5CCOCC5)c([N+](=O)[O-])c4)c(Oc4cnc5[nH]ccc5c4)c3)CC2)=C(c2ccc(Cl)cc2)C1 [Venetoclax] + C[C@@H](Nc1cc(F)cc(F)c1)c1cc(C(=O)N(C)C)cc2c(=O)cc(N3CCOCC3)oc12 [AZD8186] (first compound max 1 µM, 7x7, partner max 3 µM) | 0.141 | 0.297 | 0.103 | 0.472 | 0.182 | 0.262 | 0.746 | 0.419 | 0.17 | 0.29 | 0.147 | 0.271 | 0.222 | 0.219 | 0.191 | 0.31 | 0.0947 | 0.491 | 0.131 | 0.365
2 | CC1(C)CCC(CN2CCN(c3ccc(C(=O)NS(=O)(=O)c4ccc(NCC5CCOCC5)c([N+](=O)[O-])c4)c(Oc4cnc5[nH]ccc5c4)c3)CC2)=C(c2ccc(Cl)cc2)C1 [Venetoclax] + C[C@@H]1COCCN1C2=NC(=NC(=C2)C3(CC3)[S@](=N)(=O)C)C4=C5C=CNC5=NC=C4 [AZD6738] (first compound max 1 µM, 7x7, partner max 10 µM) | 0.69 | 0.815 | 0.804 | 0.797 | 0.425 | 1 | 0.844 | 0.873 | 0.792 | 0.705 | 0.397 | 0.921 | 0.863 | 0.441 | 0.707 | 0.711 | 0.48 | 0.855 | 0.28 | 0.617
3 | NC1(C(=O)N[C@@H](CCO)c2ccc(Cl)cc2)CCN(c2ncnc3[nH]ccc23)CC1 [Capivasertib] + Cn1cnc2c(F)c(Nc3ccc(Br)cc3Cl)c(C(=O)NOCCO)cc21 [Selumetinib] (first compound max 10 µM, 7x7, partner max 10 µM) | 0.395 | 0.426 | 0.89 | 0.828 | 0.815 | 1 | 0.628 | 0.982 | 0.393 | 0.513 | 0.171 | 0.686 | 0.873 | 0.444 | 0.379 | 0.987 | 0.56 | 0.934 | 0.197 | 0.638
4 | Cc1c2c(nn1C)CSCc1cc(n(C)n1)CSc1cc(c3ccccc3c1)OCCCc1c(C(=O)O)n(C)c3c-2c(Cl)ccc13 [AZD5991] + C1CN(CCC1(C(=O)N[C@@H](CCO)C2=CC=C(C=C2)Cl)N)C3=NC=NC4=C3C=CN4 [Capivasertib] (first compound max 1 µM, 7x7, partner max 3 µM) | 0.174 | 0.146 | 0.92 | 0.838 | 0.996 | 0.24 | 0.479 | 0.932 | 0.195 | 0.984 | 0.977 | 1 | 0.862 | 0.261 | 0.591 | 0.783 | 0.207 | 1 | 0.334 | 0.929
5 | CC1(C)CCC(CN2CCN(c3ccc(C(=O)NS(=O)(=O)c4ccc(NCC5CCOCC5)c([N+](=O)[O-])c4)c(Oc4cnc5[nH]ccc5c4)c3)CC2)=C(c2ccc(Cl)cc2)C1 [Venetoclax] + CN(C)CCCOc1ccc(-c2ccc3ncc4c(c3c2)n(C2CCOCC2)c(=O)n4C)cn1 [AZD0156] (first compound max 1 µM, 7x7, partner max 1 µM) | 0.15 | 0.256 | 0.178 | 0.491 | 0.173 | 0.0995 | 0.736 | 0.395 | 0.19 | 0.359 | 0.161 | 0.161 | 0.289 | 0.164 | 0.487 | 0.224 | 0.134 | 0.491 | 0.158 | 0.562
6 | CN(CCO)CC[C@H](CSc1ccccc1)Nc1ccc(S(=O)(=O)NC(=O)c2ccc(N3CCC([C@@H](O)c4ccccc4-c4ccc(Cl)cc4)CC3)cc2)cc1S(=O)(=O)C(F)(F)F [AZD4320] + CN(C)CCCOc1ccc(-c2ccc3ncc4c(c3c2)n(C2CCOCC2)c(=O)n4C)cn1 [AZD0156] (first compound max 1 µM, 7x7, partner max 1 µM) | 0.222 | 0.719 | 0.173 | 0.383 | 0.158 | 0.871 | 0.253 | 0.439 | 0.406 | 0.401 | 0.541 | 0.478 | 0.157 | 0.526 | 0.491 | 0.851 | 0.45 | 0.85 | 0.325 | 0.163
